According to patent US12329851B2 (MedinCell S.A., priority 2021, dated 2025):

Assay: Population pharmacokinetics (PopPK) modeling
Design: species or system human
Details: after sc Risperidone formulation

final PopPK model estimate for clearance (CL): 5.78 L/h
SMILES: Cc1nc2n(c(=O)c1CCN1CCC(c3noc4cc(F)ccc34)CC1)CCCC2O (stereo not shown) [9-OH-risperidone, 9-hydroxy-risperidone]
